Assay [1] relates to Aspergillus terreus AT4. The assay is described as follows: MIC, RPMI medium. It counts as cell-based. Particulars: Aspergillus terreus, AT4, MIC banded into grades, read-out: MIC grade, A. terreus. The essentials: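 Broth microdilution in RPMI medium with 2% glucose and 0.135 M MOPS (pH 7.0); compounds as doubling dilutions over 50-0.05 mg/L, inoculum 1−2×10^4 cfu/mL. Plates incubated 24-48 h at 35° C; OD 485 nm read, MIC being lowest concentration giving >80% growth inhibition versus drug-free control.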

For assay [2], the system named is A. fumigatus A1163. As to the kind of experiment: Temporary (TI) neutropenic murine survival model of disseminated aspergillosis. It counts as in vivo, CD-1 mouse. Particulars: for survival at day 18: TI model with prolonged observation; for survival at day 18 / survival benefit / survival: oral; for survival benefit / survival: TI survival model. On the procedure: (§1) Methods: Temporary (TI) or persistently (PI) neutropenic CD-1 mouse models of disseminated aspergillus were used. 3 days post immunosuppression with cyclophosphamide (200 mg/kg ip) mice were infected IV with an LD90 challenge of A. fumigatus A1163. Treatment commenced 5 h post infection and animals were treated for 9 days and observed for either 2 days or 7 days following cessation of treatment. […] 2-(1,5-Dimethyl-3-phenyl-1H-pyrrol-2-yl)-N-{4-[4-(4,6-dimethyl-pyridin-2-yl)-piperazin-1-yl]-phenyl}-2-oxo-acetamide was dosed orally as a suspension in HPMC/Tween 80 once or twice daily. Caspofungin dosed IP was used as a comparator.

Assay [3] deals with A. fumigatus A1163. The assay is described as follows: Persistently (PI) neutropenic murine survival model of disseminated aspergillosis. It is filed as in vivo, CD-1 mouse. Particulars: severe PI model, oral, 20 mg/kg BD. The procedure:
as §1

In assay [4] the test system is Aspergillus fumigatus AF210. As to the kind of experiment: Checkerboard titration, fractional inhibitory concentration (FIC), RPMI media. It counts as cell-based. Particulars: compound A in combination with caspofungin as compound B. The procedure:
In the checkerboard titration doubling dilutions of compound A (e.g. an antifungal pyrrole compound as defined earlier) are prepared in every row across a microtitre plate and doubling dilutions of compound B (e.g. a second antifungal agent as defined earlier) are prepared in every column down a microtitre plate. The activity of the two compounds in combination can be compared with the activity of each compound alone. In such experiments a narrow range of dilutions can be tested for each compound around the minimum inhibitory concentration (MIC).
As an example, a stock solution of compound A (e.g. 5 mg/ml) can be prepared in a suitable solvent such as DMSO. A stock solution of compound B (e.g. caspofungin) is also prepared (e.g. 2 mg/ml). The stock solution of compound A is diluted (e.g. at a concentration of 1:2000 in water) to 2.5 μg/ml. […]
To determine the combined effect of the compounds the Fractional inhibitory concentration FIC is determined, where FIC is defined as: FIC=FICA+FICB=CA^comb/MICA^alone+CB^comb/MICB^alone where MICA^alone and MICB^alone are the MICs of compounds A and B when acting alone and CA^comb and CB^comb are concentrations of compounds A and B at the isoeffective combinations, respectively. […]

Take `Cc1cc(C)nc(N2CCN(c3ccc(NC(=O)C(=O)c4c(-c5ccccc5)cc(C)n4C)cc3)CC2)c1` [Example 1, 2-(1,5-Dimethyl-3-phenyl-1H-pyrrol-2-yl)-N-{4-[4-(4,6-dimethyl-pyridin-2-yl)-piperazin-1-yl]-phenyl}-2-oxo-acetamide]: the MIC (usually the smallest concentration in the dilution series that meets the test's criterion for growth inhibition) in assay [1] was < 1 µg/mL. Further, the “survival at day 18” value in assay [2] (10 mg/kg BD) came to 80%; in assay [2] (20 mg/kg OD), 70%. The survival benefit result in assay [2] (1.25 mg/kg per day) and in assay [2] (2.5 mg/kg per day) was “little benefit” in each case. For the same molecule, the survival in assay [2] (5 mg/kg per day) was found to be 80%; in assay [2] (10 mg/kg/day), 90%; in assay [2] (20 mg/kg/day), 100%; in assay [2] (30 mg/kg/day), 100%; in assay [2] (40 mg/kg/day), 100%. In assay [2] (in these models (TI and PI)), the “efficacy compared with caspofungin (CAS) dosed IP” value is “at least as effective as CAS”. The “survival at day 12” value in assay [3] is given as 70%. Also, in assay [4], the “FIC (fractional inhibitory concentration)” value is on record as 0.67.

The values above are taken from patent US8993574B2, “Pyrrole antifungal agents” (F2G Ltd, priority 2008, dated 2015).
